Measurements: US6869946B2, “Substituted azabicyclic moieties for the treatment of disease” (Pfizer Inc, priority 2001, dated 2005)

Target: T1, α7 nAChR (Rattus norvegicus, UniProt Q05941)
T1 construct: brains (whole brain minus cerebellum) are dissected quickly, weighed and homogenized; from tissue; host or cells: rat brain (whole brain minus cerebellum) membranes
Test: [3H]-MLA competition binding assay in rat brain membranes
Conditions: inhibition of [3H]-MLA binding, rat brain homogenate (whole brain minus cerebellum), Cheng-Prusoff
Description: Materials and Methods for Identifying Binding Constants:
Membrane Preparation. Male Sprague-Dawley rats (300-350 g) are sacrificed by decapitation and the brains (whole brain minus cerebellum) are dissected quickly, weighed and homogenized in 9 volumes/g wet weight of ice-cold 0.32 M sucrose using a rotating pestle on setting 50 (10 up and down strokes). The homogenate is centrifuged at 1,000× g for 10 minutes at 4° C. The supernatant is collected and centrifuged at 20,000× g for 20 minutes at 4° C. The resulting pellet is resuspended to a protein concentration of 1-8 mg/mL. Aliquots of 5 mL homogenate are frozen at −80° C. until needed for the assay. On the day of the assay, aliquots are thawed at room temperature and diluted with Kreb's—20 mM Hepes buffer pH 7.0 (at room temperature) containing 4.16 mM NaHCO3, 0.44 mM KH2PO4, 127 MM NaCl, 5.36 mM KCl, 1.26 mM CaCl2, and 0.98 mM MgCl2, so that 25-150 μg protein are added per test tube. Protein concentration is determined by the Bradford method (Bradford, M. M., Anal. Biochem., 72, 248-254, 1976) using bovine serum albumin as the standard.
Binding Assay. For saturation studies, 0.4 mL homogenate are added to test tubes containing buffer and various concentrations of radioligand, and are incubated in a final volume of 0.5 mL for 1 hour at 25° C. Nonspecific binding was determined in tissues incubated in parallel in the presence of 1 μM MLA, added before the radioligand. In competition studies, drugs are added in increasing concentrations to the test tubes before addition of approximately 3.0 to 4.0 nM [^3H]-MLA. The incubations are terminated by rapid vacuum filtration through Whatman GF/B glass filter paper mounted on a 48 well Brandel cell harvester. Filters are pre-soaked in 50 mM Tris HCl pH 7.0-0.05% polyethylenimine. The filters are rapidly washed two times with 5 mL aliquots of cold 0.9% saline and then counted for radioactivity by liquid scintillation spectrometry.
Data Analysis. In competition binding studies, the inhibition constant (Ki) was calculated from the concentration dependent inhibition of [^3H]-MLA binding obtained from non-linear regression fitting program according to the Cheng-Prusoff equation (Cheng, Y. C. and Prussoff, W. H., Biochem. Pharmacol., 22, p. 3099-3108, 1973). Hill coefficients were obtained using non-linear regression (GraphPad Prism sigmoidal dose-response with variable slope).

T1 sequence (Q05941 23-502): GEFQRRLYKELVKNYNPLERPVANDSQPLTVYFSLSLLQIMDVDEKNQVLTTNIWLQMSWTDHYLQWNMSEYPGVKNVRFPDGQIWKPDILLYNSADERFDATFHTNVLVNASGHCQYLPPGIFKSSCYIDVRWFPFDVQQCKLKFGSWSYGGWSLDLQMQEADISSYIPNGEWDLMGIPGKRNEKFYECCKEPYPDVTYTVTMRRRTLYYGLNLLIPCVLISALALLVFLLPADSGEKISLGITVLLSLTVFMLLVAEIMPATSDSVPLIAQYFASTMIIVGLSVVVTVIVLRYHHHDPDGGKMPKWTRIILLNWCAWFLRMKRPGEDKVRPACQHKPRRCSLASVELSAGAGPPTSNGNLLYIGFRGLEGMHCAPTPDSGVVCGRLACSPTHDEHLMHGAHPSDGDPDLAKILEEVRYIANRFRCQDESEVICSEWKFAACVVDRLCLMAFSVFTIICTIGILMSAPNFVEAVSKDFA

Row | SMILES | Ki
1 | C[C@H]1[C@H](NC(=O)c2ccc(Cl)cc2)C2CCN1CC2 [Example 1(b)(i), 4-chloro-N-[(2S,3R)-2-methyl-1-azabicyclo[2.2.2]oct-3-yl]benzamide 4-methylbenzenesulfonate] | 65 to 140 nM
2 | O=C(N[C@H]1CN2CCC1CC2)c1ccc(Cl)cc1 [Example 1(a)] | 26 nM
3 | O=C(NC1CC2CCN(C2)C1)c1ccc(Cl)cc1 (racemic) [Example 3 (racemic), Exo-N-[1-azabicyclo[3.2.1]oct-3-yl]-4-chlorobenzamide 4-methylbenzenesulfonate] | 115 nM
4 | O=C(N[C@@H]1C[C@H]2CCN(C2)C1)c1ccc(Cl)cc1 [Example 3 (3R, 5R), (3R,5R)-N-(1-azabicyclo[3.2.1]oct-3-yl)-4-chlorobenzamide 4-methylbenzenesulfonate] | 18 nM
5 | O=C(N[C@H]1C[C@@H]2CCN(C2)C1)c1ccc(Cl)cc1 [Example 3 (3S, 5S), (3S,5S)-N-(1-azabicyclo[3.2.1]oct-3-yl)-4-chlorobenzamide 4-methylbenzenesulfonate] | > 1000 nM
